Laboratory results reported in patent US20090258030A1, “Materials and Methods for Improving Livestock Productivity” (priority 2006, published 2009).
Counter-ions that a name gives are not always drawn. Marks after values point to notes of the source that are not given here.

What was measured:
[1] = Effect of cysteamine compound on small-fat-tail sheep (Example 6); format: in vivo
Source text: In the following example, the test animals were sheep (small-fat-tail sheep). In total, 40 heads of small-fat-tail sheep with the average weight of 26.5 kg were randomly divided into Control group (20) and Cysteamine group (20). The control group was fed with basal diet only, while the Cysteamine group was fed a diet that included 900 g cysteamine HCl per tonnage of diet. The standard basal diet of the farm was employed for this trial.

[2] = Effect of cysteamine hydrochloride on weaning piglets: growth, FCR, diarrhea (Example 2); format: in vivo, swine (D×L×M weanling piglets)
Source text: Total of 100 heads of unhealthy D×L×M weanling piglets (approx. 6.78 kg) were divided into 2 groups—Control group (50 heads) & Cysteamine group (50 heads). The Control group was fed with basal diet. […]

[3] = Efficacy of cysteamine hydrochloride on sow and their weaning piglets performance (Example 9); format: in vivo, swine (crossbred Yolkshire and Lanrace sows); details: for Total of pigs born: 10 sows from 84 days gestation; for Av. of milk yield, L/d: calculated from average daily gain of piglets × 4 × no of piglets in each litter; for Total number of piglets at weaning: weaned at 21 days
Source text: All sows used in the experiment were crossbred (Yolkshire and Lanrace) selected from the 3rd and the 4^Th (ratio 4:6) pregnancy. Thirty sows (84 days gestation) were equally allocated into three treatments and each treatment of sows were divided into 10 replications with each sow per replication.
Cysteamine Hydrochloride was included to sow feeds at 135 ppm or 190 ppm. The diets were fed in mash form, water was allowed ad libitum. Litter size, litter weights, number of piglets born alive and weaned were recorded. Morbidity, incidence of diarrhea and mortality rates were recorded. Piglet's uniformity was accounted as percentage units that fell into two times of standard deviation based on average weaning live weight. The piglets from each sow were weaned at 21 days of age. On day 109 of gestation, sows were moved to farrowing units and were weight after farrowing and also weighed again after lactation. Back fat losses were measured every weeks during lactation period by using Renco Lean-Meter (Ultrasound for Ultra-profits, Renco Corporation, Minnesota, 55401, USA). Sows were fed about 2 kg/day during 16-84 days, 3 kg/day until farrowing and fed ad libitum during lactation period.
All sows were housed in cages adjacent to the boar's area and serviced by artificial insemination twice at 18 hours interval with the checked quality semen of the same boar. After 1 week service, they were weighed and moved to individual gestation cages. Five days prior to the date of parturition, they were moved to the farrowing units for setting in and staying till piglets weaning. After piglets weaning each sow was moved again to the service area.
All sows and piglets were subject to the usual vaccination program, antiparasitic treatment, iron injection and tail docking for piglets. An individual treatment was done if a disease or injury was developed during the trial, under the authority of the veterinary in charge of the farm animal health.

[4] = Effect of cysteamine hydrochloride on productivity of pregnant pig sows (Example 1); format: in vivo, swine (D×L×M hybrid swine)
Source text: A total of 14 heads of pregnant pig sow (which were the offspring of Duroc×Landrace×Meishan swine, also referred to herein as D×L×M hybrid swine) (84 days of pregnant) were divided into 2 groups: Control group (6) and Cysteamine group (8). The Control group was fed with basal diet. […]

[5] = 900 g cysteamine HCl per tonnage of diet, after 35 days
[6] = 900 g/tonnage, 35 days, vs control
[7] = feed consumed, 900 g/tonnage, 35 days, 20 head
[8] = 90 g of cysteamine hydrochloride per ton of feed, after 30 days, vs control
[9] = D × L × M weanling piglets, 300 ppm, 30 days
[10] = D × L × M weanling piglets, 300 ppm, 30 days, 50 head
[11] = T2: 0.0135 (135 ppm in sow feed)
[12] = T3: 0.019 (190 ppm in sow feed)
[13] = 150 g cysteamine hydrochloride per ton feed, after 49 days, vs control
[14] = late phase pregnant sow, dosage 500 g/T, from 84 days of pregnant to weaning

NCCS [Cysteamine Hydrochloride, cysteamine hydrochloride]
amount of silage necessary in raising the sheep [1, 5]: reduction | weight (ADG) vs control [1, 5]: statistically significant increase | Daily weight gain (g/head/day) ([1]; 900 g/tonnage, 35 days): 95.71 g/head/day | Final weight (kg/head) ([1]; 900 g/tonnage, 35 days): 28.92 kg/head | Weight gain (kg/head) ([1]; 900 g/tonnage, 35 days): 3.350 kg/head | Total feed consumption ([1]; 900 g/tonnage, 35 days, 20 head): 1019.38 kg | Daily weight gain: Improvement (%) [1, 6]: 30.9% | Silage: Improvement (%) [1, 6]: −16.22% | Weight gain: Improvement (%) [1, 6]: 30.9% | Concentrate [1, 7]: 245 kg | Hay [1, 7]: 350.00 kg | Silage [1, 7]: 424.38 kg | decrease in feed conversion rate (FCR) [2, 8]: 5.56% | improvement in diarrhea condition [2, 8]: 43.24% | increase in average daily weight gain (ADG) [2, 8]: 12.83% | ADG: Improvement ([2]; 300 ppm, 30 days, vs control): +48 g/head | ADG: Improvement (%) ([2]; 300 ppm, 30 days, vs control): 12.83% | Daily feed consumption: Improvement ([2]; 300 ppm, 30 days, vs control): +44.2 g/head | Diarrhea: Improvement (%) ([2]; 300 ppm, 30 days, vs control): −43.24% | FCR: Improvement ([2]; 300 ppm, 30 days, vs control): −0.1 | FCR: Improvement (%) ([2]; 300 ppm, 30 days, vs control): −5.56% | Final Wt.: Improvement ([2]; 300 ppm, 30 days, vs control): +1.5 kg/head | Total feed consumption: Improvement ([2]; 300 ppm, 30 days, vs control): +66.3 kg | Total final weight: Improvement ([2]; 300 ppm, 30 days, vs control): +75 kg | Total weight gain: Improvement ([2]; 300 ppm, 30 days, vs control): +72.5 kg | Weight gain: Improvement ([2]; 300 ppm, 30 days, vs control): +1.45 kg/head | ADG (g/head) [2, 9]: 422 g/head | Daily feed consumption (g/head) [2, 9]: 717.4 g/head | FCR [2, 9]: 1.70 | Final Wt. (kg/head) [2, 9]: 19.46 kg/head | Weight gain (kg/head) [2, 9]: 12.66 kg/head | Total feed consumption [2, 10]: 1076.1 kg | Total final weight [2, 10]: 973 kg | Total weight gain [2, 10]: 633 kg | Diarrhea (head) ([2]; D × L × M weanling piglets, 300 ppm, 30 days, of 50 head): 21 head | Av. birth weight of piglets, kg [3, 11]: 1.737^a kg | Av. daily feed intake of sow during lactation, kg [3, 11]: 5.88^a kg | Av. daily gain of piglets [3, 11]: 355 g | Av. feed intake per piglets [3, 11]: 179 g | Av. live weight of piglets at weaning [3, 11]: 7.45 kg | Av. number of piglets born alive per litter [3, 11]: 11.10 | Av. of piglet born per litter [3, 11]: 11.60 | Av. overall weight loss of sow during lactation, kg [3, 11]: 14.25^b kg | Av. total birth weight of piglet per litter, kg [3, 11]: 19.10^a kg | Back fat loss of sow during lactation, mm: Overall [3, 11]: 0.867^b mm | Back fat loss of sow during lactation, mm: Week 1 [3, 11]: 0.165^b mm | Back fat loss of sow during lactation, mm: Week 2 [3, 11]: 0.588^b mm | Back fat loss of sow during lactation, mm: Week 3 [3, 11]: 0.114^b mm | Number of piglet weaning per litter [3, 11]: 10.20 | Survival rate of piglets at weaning, % [3, 11]: 91.90% | Total number of piglet born alive per litter [3, 11]: 111 | Total weight of piglets at weaning per litter, kg [3, 11]: 76.02^ab kg | Uniformity of live weight at weaning, % [3, 11]: 86.68^a % | Total of pigs born [3, 11]: 116 | Av. of milk yield, L/d [3, 11]: 14.48^ab L/d | Total number of piglets at weaning [3, 11]: 102 | Av. birth weight of piglets, kg [3, 12]: 1.782^a kg | Av. daily feed intake of sow during lactation, kg [3, 12]: 6.07^a kg | Av. daily gain of piglets [3, 12]: 366 g | Av. feed intake per piglets [3, 12]: 183 g | Av. live weight of piglets at weaning [3, 12]: 7.68 kg | Av. number of piglets born alive per litter [3, 12]: 10.70 | Av. of piglet born per litter [3, 12]: 11.50 | Av. overall weight loss of sow during lactation, kg [3, 12]: 13.58^b kg | Av. total birth weight of piglet per litter, kg [3, 12]: 18.88^a kg | Back fat loss of sow during lactation, mm: Overall [3, 12]: 0.829^b mm | Back fat loss of sow during lactation, mm: Week 1 [3, 12]: 0.171^b mm | Back fat loss of sow during lactation, mm: Week 2 [3, 12]: 0.548^b mm | Back fat loss of sow during lactation, mm: Week 3 [3, 12]: 0.110^b mm | Number of piglet weaning per litter [3, 12]: 10.40 | Survival rate of piglets at weaning, % [3, 12]: 97.20% | Total number of piglet born alive per litter [3, 12]: 107 | Total weight of piglets at weaning per litter, kg [3, 12]: 79.42^a kg | Uniformity of live weight at weaning, % [3, 12]: 86.95^a % | Total of pigs born [3, 12]: 115 | Av. of milk yield, L/d [3, 12]: 15.13^a L/d | Total number of piglets at weaning [3, 12]: 104 | increase in litter weight [4, 13]: 13.28% | increase in piglet born weight [4, 13]: 12.43% | increase in weaning weight [4, 13]: 8.00% | Body weight of weaned piglet (kg/head) ([4]; dosage 500 g/T, piglets weaning age 19 days): 6.21 kg/head | Birth weight per litter: Improvement ([4]; dosage 500 g/T, vs control): 2.50 kg | Birth weight per litter: Improvement (%) ([4]; dosage 500 g/T, vs control): 13.28% | Birth weight per piglet: Improvement ([4]; dosage 500 g/T, vs control): 0.23 kg/head | Birth weight per piglet: Improvement (%) ([4]; dosage 500 g/T, vs control): 12.43% | Body weight of weaned piglet: Improvement ([4]; dosage 500 g/T, vs control): 0.46 kg/head | Body weight of weaned piglet: Improvement (%) ([4]; dosage 500 g/T, vs control): 8.00% | Live piglet born rate: Improvement ([4]; dosage 500 g/T, vs control): 0.00% | Live piglet born rate: Improvement (%) ([4]; dosage 500 g/T, vs control): 0.00% | Birth weight per litter [4, 14]: 21.32 kg | Birth weight per piglet (kg/head) [4, 14]: 2.08 kg/head | Live piglet born per litter (head) [4, 14]: 10.29 head | Live piglet born rate (%) [4, 14]: 100.00% | Piglet born per litter (head) [4, 14]: 10.29 head | Total live piglet born (head) [4, 14]: 82 head | Total piglet born (head) [4, 14]: 82 head
